Assays:
Test in all cases: relative viability (nuclei count vs DMSO), 5 days (fraction); higher = more cells survive
VE-821 + Decitabine = compound: CS(=O)(=O)c1ccc(-c2cnc(N)c(C(=O)Nc3ccccc3)n2)cc1 [VE-821] + Nc1ncn([C@H]2C[C@H](O)[C@@H](CO)O2)c(=O)n1 [Decitabine] (partner 2 µM)
Method in brief: (§1)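 Medians of duplicate plates are given as relative viability. That measure is the nuclei count in treated wells divided by the count in vehicle wells. Counts were taken on 4× images of lung cancer cell lines in 1536-well plates, 5 days after pin-tool dosing the day after seeding with one drug alone or a fixed anchor-drug dose plus five library-drug doses (not always all listed) in √10 steps.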

Ruxolitinib + Foretinib = compound: N#CC[C@H](C1CCCC1)n1cc(-c2ncnc3[nH]ccc23)cn1 [Ruxolitinib] + COc1cc2c(Oc3ccc(NC(=O)C4(C(=O)Nc5ccc(F)cc5)CC4)cc3F)ccnc2cc1OCCCN1CCOCC1 [Foretinib] (partner 0.25 µM)
Method in brief: as §1

VE-821 + Linsitinib = compound: CS(=O)(=O)c1ccc(-c2cnc(N)c(C(=O)Nc3ccccc3)n2)cc1 [VE-821] + C[C@]1(O)C[C@@H](c2nc(-c3ccc4ccc(-c5ccccc5)nc4c3)c3c(N)nccn32)C1 [Linsitinib] (partner 1 µM)
Method in brief: as §1

Vismodegib + OSI-027 = compound: CS(=O)(=O)c1ccc(C(=O)Nc2ccc(Cl)c(-c3ccccn3)c2)c(Cl)c1 [Vismodegib] + COc1cccc2cc(-c3nc([C@H]4CC[C@H](C(=O)O)CC4)n4ncnc(N)c34)[nH]c12 [OSI-027] (partner 0.5 µM)
Method in brief: as §1

Cell Line: UMC-11
- relative viability (VE-821 + Decitabine; first compound 0.08 µM): 0.687
- relative viability (VE-821 + Decitabine; first compound 0.253 µM): 0.617
- relative viability (VE-821 + Decitabine; first compound 0.8 µM): 0.583
- relative viability (VE-821 + Decitabine; first compound 2.53 µM): 0.664
- relative viability (VE-821 + Decitabine; first compound 8 µM): 0.479
- relative viability (Ruxolitinib + Foretinib; first compound 0.08 µM): 1.05
- relative viability (Ruxolitinib + Foretinib; first compound 0.253 µM): 1.07
- relative viability (Ruxolitinib + Foretinib; first compound 0.8 µM): 1.28
- relative viability (Ruxolitinib + Foretinib; first compound 2.53 µM): 1.07
- relative viability (Ruxolitinib + Foretinib; first compound 8 µM): 1.02
- relative viability (VE-821 + Linsitinib; first compound 0.08 µM): 1.14
- relative viability (VE-821 + Linsitinib; first compound 0.253 µM): 1.03
- relative viability (VE-821 + Linsitinib; first compound 0.8 µM): 1.06
- relative viability (VE-821 + Linsitinib; first compound 2.53 µM): 1.04
- relative viability (VE-821 + Linsitinib; first compound 8 µM): 0.533
- relative viability (Vismodegib + OSI-027; first compound 0.08 µM): 0.499
- relative viability (Vismodegib + OSI-027; first compound 0.253 µM): 0.468
- relative viability (Vismodegib + OSI-027; first compound 0.8 µM): 0.408
- relative viability (Vismodegib + OSI-027; first compound 2.53 µM): 0.43
- relative viability (Vismodegib + OSI-027; first compound 8 µM): 0.46

Reference: the supplement of paper PMC10307832
